From ChEMBL document CHEMBL1201862, “PubChem BioAssay data set” (2004) come the findings set out here.

Molecules are shown by their SMILES. Active and inactive are the calls of the source. For most assays here, no stated cut-off is given here; in the data, actives have a measured EC50 and inactives only a lower limit.

Assay [1] deals with Streptococcus sp. 'group A'. Description: Streptococcus pyogenes SK(-)GAS viability under kanamycin – luminescence, BacTiterGlo, confirmation, counter-screen for streptokinase expression inhibitor project, dose response (AID 1900). The format is functional, organism-based.
The next assay has as its target T1, Streptokinase A (Streptococcus pyogenes serotype M1, UniProt P10520).
T1 sequence (P10520 whole entry): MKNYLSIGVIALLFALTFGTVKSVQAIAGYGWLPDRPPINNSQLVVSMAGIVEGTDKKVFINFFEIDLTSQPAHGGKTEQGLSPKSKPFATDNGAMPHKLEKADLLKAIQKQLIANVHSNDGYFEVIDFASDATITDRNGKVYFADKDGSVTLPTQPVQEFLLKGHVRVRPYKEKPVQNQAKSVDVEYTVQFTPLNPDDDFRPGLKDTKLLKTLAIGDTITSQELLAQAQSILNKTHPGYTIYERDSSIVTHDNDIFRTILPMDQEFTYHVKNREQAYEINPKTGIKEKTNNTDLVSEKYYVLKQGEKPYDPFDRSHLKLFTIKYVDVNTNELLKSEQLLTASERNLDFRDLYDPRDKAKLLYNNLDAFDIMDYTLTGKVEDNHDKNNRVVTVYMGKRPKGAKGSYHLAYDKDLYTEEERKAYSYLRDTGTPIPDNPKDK
Description: viability-normalized secreted streptokinase activity reduction – plasminogen activation absorbance, OD405, dose response (AID 1914).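 Further: secreted streptokinase activity via plasminogen activation per viability signal from cell pellet.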 In kind it is functional, Streptococcus pyogenes M1 GAS.

For another assay, the system named is Streptococcus. Description: GAS UMAA2166 growth inhibition – luminescence, BacTiterGlo, counter-screen for streptokinase expression inhibitor project, dose response (AID 1915).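 Further: potency for reduction of bacterial viability or growth.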 The format is functional, organism-based. On the technique in general: A counterscreen serves to expose hits that act by an unwanted route or on another target.
Another assay concerns INS1. Description: INS-1E survival protection against cytokine death – cell-based, luminescence, retest, dose response (AID 449756).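 Further: cell death triggered by IL-1 beta plus TNF-alpha plus IFN-gamma mixture; protective hits raise ATP signal compared with cytokine alone wells.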 In kind it is functional. As to conditions: Rattus norvegicus.
The nature of assay [2]: Trypanosoma cruzi growth suppression in host cells – NIH3T3 host cells, beta-gal luminescence, confirmation (AID 2044).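 Further: intracellular parasites grown in NIH/3T3 mouse fibroblasts as host cells; luminescent beta-galactosidase reporter signal from transgenic T. cruzi replicating inside host cells; inhibitors lower the luminescence signal.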 In kind it is functional, cell-based.
Assay [3] in a line: NIH3T3 cell viability loss – ATP luminescence, mouse fibroblasts, counter-screen, dose response (AID 2010).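 Further: cells exposed to compound for about 90 hours before reading.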 In kind it is functional, cell-based.
A short description of assay [4]: Luminescence Cell-Based Dose Retest to Confirm Inhibitors of Cancer Stem Cells. [Related pubchem assays (depositor defined):AID2717, AID2721]. In kind it is functional. The settings on record: Homo sapiens.

By EC50 is commonly meant the midpoint of the concentration-response curve. Take `CC1(C)S[C@@H]2[C@H](NC(=O)COc3ccccc3)C(=O)N2C1C(=O)OCc1ccccc1` (some centres undefined): the EC50 in assay [1] is 1.42 µM (active); on Streptokinase A it was > 150 µM (not active); in the assay on Streptococcus, 2.56 µM (active).

By AC50 is commonly meant the concentration at which the activity in the assay is half-maximal. `CC(=O)c1ccccc1OCCOCCOc1ccccc1C(C)=O`: the AC50 in the assay with INS1 is 31.1 µM (active). Take `COc1ccc(CN(C)CC(=O)c2c(N)n(Cc3ccccc3)c(=O)n(C)c2=O)c(OC)c1`: the EC50 in assay [2] was 2.78 µM (active); in assay [3], > 60 µM (not active). The corresponding values for `COc1ccc(/C=C/C2=CCN(Cc3ccc(OC)cc3)CC2)cc1` are 3.17 µM (active) and > 60 µM (not active). On to `CSc1ccc(/C=C/c2ccc3cccc(O)c3n2)cc1`, for which the values for the EC50 (in assay [1]; in the assay with Streptococcus) were 0.693 µM (active) and 14 µM (active), respectively. Consider `Cc1ccc(-n2c(N)c(-c3nc4ccccc4n3C)sc2=S)cc1`, for which the EC50 in assay [1] is 39.6 µM (active); on Streptokinase A, > 150 µM (not active); in the assay on Streptococcus, > 150 µM (not active). On to `Cc1ccc2nc(N=C(NS(=O)(=O)c3ccc(F)cc3)c3ccccc3)sc2c1`, for which the EC50 in assay [1] was 5.01 µM (active); on Streptokinase A it was > 50 µM (not active); in the assay with Streptococcus, 10 µM (active). For `COc1cc(OC)c(C=O)c(OC(=O)N2CCOCC2)c1`, the AC50 in assay [4] was > 195 µM (inactive).

On to `O=C(c1ccc(O)cc1)c1ccc(C(=O)c2ccc(O)cc2)cc1`, for which the EC50 in assay [1] was 2.84 µM (active); at Streptokinase A, > 150 µM (not active); in the assay with Streptococcus, 31.4 µM (active). In the case of `CCn1cc(C(=O)N[C@H](C)c2ccccc2)c(=O)c2cc(F)c(N3CCN(C)CC3)cc21`, the AC50 in assay [4] is 0.796 µM (active).

On to `CN1CCc2nc(SCc3ccc(C(C)(C)C)cc3)c(C#N)cc2C1`, for which the EC50 was 0.465 µM (active) in assay [2] and 19 µM (active) in assay [3].

Take `CC1(C)C=Cc2c(c3c(c4c(=O)c(-c5ccc(O)cc5)coc24)OC(C)(C)CC3)O1`: the AC50 in assay [4] was 6.61 µM (active). As for `Cc1ccccc1CN(C)CC(=O)Nc1ccccc1-c1ccccc1`, the EC50 in assay [1] was 7.65 µM (active); at Streptokinase A, 23.3 µM (active); with Streptococcus, > 150 µM (not active). Turning to `CC(=O)c1ccc(-c2cc([C@H]3[C@H]4C=CC[C@@H](C)[C@@H]4C(=O)N3Cc3ccccc3)ccc2F)cc1`, the AC50 in assay [4] was 5.46 µM (active). Regarding `O=C(CSc1nnc(CNC(=O)c2ccccc2)o1)NCc1ccccc1`, the EC50 (in assay [1]; at Streptokinase A; in the assay on Streptococcus) was > 150 µM (not active) each time. Turning to `COc1ccc(C(=O)N2CCc3c([nH]c4ccccc34)C2C(F)(F)F)cc1` (centres undefined), the EC50 (in assay [1]; at Streptokinase A; in the assay with Streptococcus) was > 150 µM (not active) throughout. Consider `COc1cc(OC)cc(C(=O)Nc2cccc(N3CCCC3)c2)c1`, for which the EC50 in assay [2] is 3.33 µM (active); in assay [3], > 30 µM (not active). With `CN1CCN(CCOc2ccc(Cl)c(Cl)c2)CC1`, the EC50 is 0.516 µM (active) in assay [2] and > 60 µM (not active) in assay [3]. `COc1cc2cc(C(=O)N3CCOCC3)cc(-c3ccc(C)cc3)c2cc1OC`: the AC50 in the assay on INS1 is 6.42 µM (active).

For the compound `CCCOc1ccc(NCC(=O)Nc2ccc(C)cc2C)cc1`, the EC50 is 3.07 µM (active) in assay [2] and > 60 µM (not active) in assay [3]. With `Cc1ccc(NC(=S)N(CCCN2CCCC2)Cc2cccn2Cc2ccc(Cl)cc2)cc1Cl`, in assay [4], the AC50 is 5.36 µM (active). With `COc1ccc(CCC(C)NCC2CCCCC2)cc1` (centres undefined), the AC50 in assay [4] is 5.09 µM (active). Regarding `COc1ccc(S(=O)(=O)N2CCCCCC2)cc1N(C)S(=O)(=O)c1ccc(Cl)cc1`, the EC50 was 2.21 µM (active) in assay [2] and > 60 µM (not active) in assay [3].

Consider `CC(C)(C)c1cc(C(=O)NNc2cccc(Cl)c2)n(Cc2ccccc2)n1`, for which the AC50 in assay [4] is 1.34 µM (active).

For `O=c1c2ccccc2nc(SCCN2CCCCC2)n1CCc1ccccc1`, the figures for the EC50 in assay [2] and in assay [3] were 1.57 µM (active) and > 60 µM (not active), respectively. On to `COc1ccc(-n2c(=O)c3c4c(sc3n3c(S)nnc23)CCC4)cc1`, for which the results for the EC50 (in assay [1]; with Streptococcus) were 15.7 µM (active) and 17.4 µM (active), respectively. `Cc1ccc(-c2csc(-c3c[nH]c4ccccc34)n2)c(C)c1`: the EC50 in assay [1] was 12 µM (active); on Streptokinase A it was > 150 µM (not active); with Streptococcus, 7.96 µM (active). In addition, in assay [4], the AC50 was 2.88 µM (active). `COc1cnc(-c2ccccn2)nc1Oc1ccc(C(C)(C)C)cc1`: the EC50 in assay [1] was 12.4 µM (active); at Streptokinase A it was > 150 µM (not active); with Streptococcus, 19.2 µM (active). Besides, the AC50 in the assay with INS1 is 6.45 µM (active). Consider `CN1CCN(CCCOc2ccc(-c3ccccc3)cc2)CC1`, for which the EC50 in assay [2] was 0.988 µM (active); in assay [3], 7.93 µM (active). As to `COc1ccccc1CNC(=O)C(=O)NCC1CCCN1S(=O)(=O)c1cccs1` (centres undefined), the EC50 in assay [2] was 2.54 µM (active); in assay [3], > 60 µM (not active). The like results for `O=C(NCCc1ccccc1F)C1CCCN1S(=O)(=O)c1ccc2ccccc2c1` (centres undefined) were, in that order, 1.63 µM (active) and > 60 µM (not active).

On to `O=[N+]([O-])c1ccc(CP(=O)(c2ccccc2)c2ccccc2)cc1`, for which the AC50 in assay [4] is > 195 µM (inactive). Same read-out and setting: to `O=C(Nc1cccc(-c2csc(Nc3ccc(Cl)cc3)n2)c1)c1cc([N+](=O)[O-])cc(C(F)(F)F)c1` belongs 1.56 µM (active). Consider `Cc1ccc(NS(=O)(=O)c2ccc(NC(=O)c3ccccc3C(=O)O)cc2)c(C)c1`, for which the EC50 in assay [2] and in assay [3] was > 60 µM (not active) in each case.

As for `Cc1cc2oc(=O)cc(CN3CCN(S(=O)(=O)/C=C/c4ccccc4)CC3)c2cc1C`, the EC50 in assay [2] was 2.02 µM (active); in assay [3] it was > 60 µM (inconclusive).

`Cc1ccc(-c2cc(-c3ccccc3)nc(N(C)N)n2)cc1`: the EC50 in assay [1] is 14.6 µM (active); at Streptokinase A, > 150 µM (not active); in the assay on Streptococcus, > 150 µM (not active). As for `Cc1nc(SCc2nc3cc(C(F)(F)F)ccc3[nH]2)c2oc3ccccc3c2n1`, the AC50 in assay [4] was 4.11 µM (active). `COc1cc(/C=N/N(c2ccccc2)c2ccccc2)ccc1O`: in assay [4], the AC50 is 5.16 µM (active). Same read-out and setting: under `CCCCc1ccc(N/N=C(\C(C)=O)C(=O)Nc2ccc(NC(C)=O)cc2OC)cc1` stands 3.91 µM (active). `O=C1CN(/N=C/c2ccc([N+](=O)[O-])o2)C(=O)N1` [NITROFURANTOIN]: the figures for the concentration for a half-maximal effect (EC50) (in assay [1]; on Streptokinase A; with Streptococcus) were 3.16 µM (active), > 150 µM (not active) and 9.83 µM (active), respectively.
